# Assay results taken from US20260034135A1, “USE OF N6-BENZYLAMINOPURINE AS AN APPETITE SUPPRESSANT” (THE GOVERNING COUNCIL OF THE UNIVERSITY OF TORONTO, priority 2022, published 2026).
# Tests used:
# [1] = rats fed BAP for 13 weeks, EPA study, no data shown; cited from earlier work
# p70-S6K = p70-S6K (Thr389) phosphorylation by Western blot in mHypoE-46; assay type: cell-based, mouse; details: 100 μM BAP for 5, 15, 30, 60 and 90 minutes, serum-starved mHypoE-46
# Method: mHypoE-46 cells were serum starved in 5.5 mM glucose (LG) DMEM for 1 hour prior to treatment with vehicle (0.1% DMSO), 100 µM BAP or H20, […] 5-Aminoimidazole-4-carboxamide ribonucleotide (AICAR) or 0 mM glucose DMEM. Protein was harvested using 1× cell lysis buffer (Cell Signaling Technologies, Inc, CST) containing protease and phosphatase inhibitors. A total of 30 μg protein was separated on a 12% SDS-polyacrylamide gels and transferred onto PVDF membranes. Membranes were blocked in 5% milk dissolved in Tris-buffered saline with Tween 20 (TBS-T) for 1 h and incubated with primary antibody overnight at 4° C. phospho-AMPKα (Thr172; cat. 2532S, CST), and total AMPKα (cat. 2535S, CST); phospho-p70-S6K (Thr389; cat. 9205S, CST) and total p70-S6K (cat. 9202S, CST); insulin receptor ß (cat. 3025S, CST); phospho-AKT (Ser473; cat. 9271S, CST) and total AKT (cat. 9272S, CST); phospho-ERK1/2 (Thr202/Tyr204; cat. 9101, CST) and total ERK (cat. 4695, CST) were diluted 1:1000 in 5% milk in TBS-T. Membranes were washed and incubated with secondary HRP-linked antirabbit antibody (1:7500 in 5% milk in TBS-T, CST) for 1 h, washed, and imaged using the Signal Fire ECL Reagent (CST) on the iBright 1500 Imaging System (Thermofisher). Protein density was quantified using ImageJ or the iBright Imaging System. […]
# mHypoE-46 cell line = assay: Gene expression by qRT-PCR in mHypoE-46 hypothalamic cell line; assay type: cell-based, mouse; set-up: insulin receptor subunit beta (Insrb) expression by qRT-PCR: dose or concentration left out as unconfirmed; details: for effect of PKA inhibition on BAP effect on Npy expression: n=2
# Method: Hypothalamic neurons from embryonic and adult mice were previously immortalized to generate the clonal cell lines mHypoE-46, mHypoE-44, mHypoE-41, mHypoE-38, mHypoA-59, a FAC-sorted POMC/GFP mouse-derived cell line, mHypoA-POMC/GFP-2, and a mixed culture mHypoA-Bmal1-WT/F cell line (6, 13, 14). The mHypoE-46, mHypoE-44, and mHypoA-Bmal1-WT/F lines were cultured in DMEM containing 1000 mg/L glucose supplemented with 5% FBS and 1% pen/strep. The mHypoE-41, mHypoE-38, and mHypoA-59 cell lines were cultured in DMEM containing 4500 mg/L glucose supplemented with 2% FBS and 1% pen/strep. The mHypoA-POMC/GFP-2 line was cultured in DMEM containing 1000 mg/L glucose supplemented with 2% FBS and 1% pen/strep. All cells were maintained in 5% CO2 at 37° C. BAP was initially dissolved in DMSO solvent (vehicle control) to achieve 1000x the intended dose. The BAP solution was then diluted 1:1000 with the growth media used for the cell line. For co-treatment experiments, the vehicle control for ATP, UDP, and PKI was water, and for the H89 PKA inhibitor was DMSO. Neuropeptide gene expression levels were determined by qRT-PCR.
# For cell culture experiments, total RNA was isolated using PureLink RNA isolation kit (Thermofisher Scientific, Burlington, ON, Canada) according to the manufacturer's instruction with on column DNase step (PureLink DNAse kit) or DNase I treatment to remove genomic DNA. For mouse experiments, total RNA was isolated using mirVana PARIS RNA and native protein isolation kit (Thermofisher Scientific). RNA quality and quantity were measured using Nanodrop 2000 and 500-1000 ng of complimentary DNA (cDNA) was synthesized with High Capacity cDNA Reverse Transcription kit (Applied biosystems, Thermofisher Scientific). Quantitative reverse transcription polymerase chain reaction (RT-qPCR) was performed with 12.5 ng of cDNA amplified with Platinum SYBR green qPCR SuperMix-UDG with ROX on an Applied Biosystems Prism 7900HT or PowerTrack Green Master Mix on an Applied Biosystems QuantStudio 5 and gene specific primers as per manufacturer's instructions (Table 1). Data was analyzed using […] and normalized to reference gene, either 60S ribosomal protein L7 (Rpl7) or Histone 3a (His).
# [2] = Intraperitoneal glucose tolerance test (GTT); assay type: in vivo, CD-1 mice; details: male CD-1, HFD, cohort BSF
# Method: […] The mice were then briefly fasted to determine the response to insulin or glucose. For the intraperitoneal glucose tolerance test, male mice were transferred to new clean cages and fasted for 6 hours prior to GTT. After 5 hours of fasting, the mice were weighed to determine their proper glucose dosage. The appropriate amount of 20% glucose solution was aliquoted for each mouse (2 g/kg). After 6 hours of fasting, the mice had their blood glucose measured via tail vein using a glucometer. This was recorded as the blood glucose at 0-minute timepoint. The mice were then intraperitoneal injected with their aliquoted glucose solution and returned to their cage. Blood glucose was measured via the tail vein 15, 30, 60, 90, and 120 minutes after glucose injection. Upon completion of GTT, the mice were returned to their cages with food and water and were closely monitored to ensure proper recovery.
# P2 receptors = details: rats, via P2 receptors, modifying intracellular calcium levels and cGMP; cited from earlier work
# [3] = 100 μM BAP, validation of RNAseq (FIG. 42A 4 hr, 42B 16 hr)
# [4] = daily oral BAP emulsion, 27 days
smiles,measurement,setting,value
"c1ccc(CNc2ncnc3nc[nH]c23)cc1 [BAP, N6-benzylaminopurine]",food intake,[1],reduced
same,weight gain,[1],reduced
same,p70-S6K (Thr389) phosphorylation (activity),p70-S6K,significantly downregulated
same,effect of PKA inhibition on BAP effect on Npy expression,"mHypoE-46 cell line; 100 μM BAP + 1 μM H89, 16 hr",unable to block the effects of BAP on Npy expression
same,effect of PKA inhibition on BAP effect on Npy expression,"mHypoE-46 cell line; 100 μM BAP + 10 μM PKI, 16 hr",unable to block the effects of BAP on Npy expression
same,Npy expression under co-treatment with palmitate,"mHypoE-46 cell line; 100 μM BAP + 50 μM palmitate, 16 hr",rescues the palmitate-mediated increase in Npy expression
same,Npy mRNA under co-treatment with ATP,"mHypoE-46 cell line; 100 μM BAP + 100 μM ATP, 16 hr",overcome this induction and supress Npy mRNA levels
same,Npy mRNA under co-treatment with UDP,"mHypoE-46 cell line; 100 μM BAP + 100 μM UDP, 16 hr",still able to supress the gene
same,Npy mRNA under co-treatment with UTP,"mHypoE-46 cell line; 100 μM BAP + 100 μM UTP, 16 hr, n=2 preliminary",still able to supress the gene
same,PI3K subunit (Pik3r1) gene expression,"mHypoE-46 cell line; 100 μM BAP, 4 and 16 h",significantly increased
same,Nadpk1 expression level,"mHypoE-46 cell line; 100 μM BAP, 16 h",significantly decreased
same,Nadpk2 expression level,"mHypoE-46 cell line; 100 μM BAP, 16 h",not changed
same,Agrp mRNA expression,"mHypoE-46 cell line; 100 μM BAP, 16 hr",increased
same,Npy mRNA expression,"mHypoE-46 cell line; 100 μM BAP, 16 hr",supressed
same,4e-BP1 (Eif4ebp1) gene expression,mHypoE-46 cell line; [3],increased
same,ULK1 (Ulk1) gene expression,mHypoE-46 cell line; [3],increased
same,sestrin2 (Sesn2) gene expression,mHypoE-46 cell line; [3],increased
same,tuberous sclerosis complex 2 (Tsc2) gene expression,mHypoE-46 cell line; [3],increased
same,"Npy mRNA expression, time course","mHypoE-46 cell line; 100 μM BAP, all time points tested: 2, 4, 8, 16, and 24 hr",significantly downregulate
same,insulin receptor subunit beta (Insrb) expression by qRT-PCR,"mHypoE-46 cell line; BAP, 16 h",increased
same,BAP dose at which magnitude of Npy downregulation plateaus,"mHypoE-46 cell line; dose curve, 16 hr",250 µM
same,lowest BAP concentration significantly decreasing Npy mRNA expression,"mHypoE-46 cell line; dose curve, 16 hr",50 µM
same,glucose uptake in a GTT,[2]; BAP emulsion 14 days,no change in glucose uptake
same,fasting blood glucose vs HFD without BAP (GTT),[2]; [4],significantly lower
same,glucose response in GTT,[2]; [4],improved glucose response
same,strength of atrial muscle contractions,P2 receptors,increase the strength of atrial muscle contractions
